US20240174637A1, “DEGRADERS OF GRK2 AND USES THEREOF” (Sonata Therapeutics, Inc., priority 2021, published 2024)
Structures can show the parent of a compound that is named as a salt. Where two headings read alike, the source gives them in different places.

Assays:
[1] = target: T1, GRK2 (Homo sapiens, UniProt P25098); experiment: GRK2 Inhibition Assay (TR-FRET, Example 1); format: biochemical
T1 sequence (P25098 1-689): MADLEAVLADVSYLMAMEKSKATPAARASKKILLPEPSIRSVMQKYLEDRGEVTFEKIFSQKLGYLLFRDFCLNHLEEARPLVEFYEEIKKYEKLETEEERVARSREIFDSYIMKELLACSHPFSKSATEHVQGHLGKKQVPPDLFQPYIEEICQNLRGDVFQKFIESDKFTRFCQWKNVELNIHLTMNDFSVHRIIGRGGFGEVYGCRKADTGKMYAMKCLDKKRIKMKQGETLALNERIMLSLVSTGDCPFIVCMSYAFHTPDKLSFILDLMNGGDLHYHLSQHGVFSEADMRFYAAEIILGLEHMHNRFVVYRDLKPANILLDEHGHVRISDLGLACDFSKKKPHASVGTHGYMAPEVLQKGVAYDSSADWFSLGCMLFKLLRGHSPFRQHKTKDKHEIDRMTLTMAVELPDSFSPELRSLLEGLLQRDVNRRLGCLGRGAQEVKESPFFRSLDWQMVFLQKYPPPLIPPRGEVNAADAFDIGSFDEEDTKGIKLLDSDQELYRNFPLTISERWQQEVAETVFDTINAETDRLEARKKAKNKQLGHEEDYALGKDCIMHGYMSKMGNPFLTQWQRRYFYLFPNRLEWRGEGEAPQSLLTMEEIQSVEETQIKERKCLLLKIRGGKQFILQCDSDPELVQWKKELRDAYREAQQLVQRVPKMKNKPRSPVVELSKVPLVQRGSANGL
How it was run: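 TR-FRET phosphorylation readout: Eu anti-TopoIIα antibody with EDTA added after a 90 min RT kinase reaction of 1 nM GRK2, 7 μM ATP and 50 nM ULight-TopoIIα. Compounds were pre-incubated with enzyme 30 min at room temperature beforehand.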

[2] = target: T1, GRK2; experiment: GRK2 Degradation Assay and Western Blot in PAXF1657 cells; format: cell-based; set-up: endogenous in cells; host or cells: PAXF1657
How it was run: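 GRK2 degradation judged by immunoblot: NP40 lysates separated by SDS-PAGE and probed for GRK2 and β-actin, with HRP/ECL detection. Lysates came from PAXF1657 cells exposed to 0–10 μM compound for 6–24 h after reaching 70% confluency.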

[3] = system: PAXF1657 KO Clone #4; experiment: 7-day cellular proliferation assay (CellTiter-Glo), PAXF1657 KO Clone #4; format: cell-based
How it was run: (§1)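 Isogenic PAXF1657 pairs differing in GRK2 level (stable cDNA overexpression or CRISPR knockout, each with matched control) are seeded and allowed to attach overnight. Inhibitors span 30 μM-0.0002 μM in 0.3% DMSO for 3 plus 4 days at 37° C, 5% CO2, with a medium change between.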

[4] = system: PAXF1657 EV; experiment: 7-day cellular proliferation assay (CellTiter-Glo), PAXF1657 EV; format: cell-based
How it was run: as §1

[5] = TR-FRET, 7 μM ATP, read-out: Enzymatic GRK2 Assay: IC50 (nM) (Example 1)
[6] = 0.3 uM, PAXF1657 EV, 24 hrs, read-out: % GRK2 degradation at 0.3 uM in PAXF1657 EV (24 hrs)
[7] = 1 uM, PAXF1657 EV, 24 hrs, read-out: % GRK2 degradation at 1 uM in PAXF1657 EV (24 hrs)
[8] = 3 uM, PAXF1657 EV, 24 hrs, read-out: % GRK2 degradation at 3 uM in PAXF1657 EV (24 hrs)
[9] = 168 h, 7-day, read-out: 7-day proliferation assay: IC50 GeoMean (uM) [Cell Line: PAXF1657 KO Clone #4]
[10] = 168 h, 7-day, read-out: 7-day proliferation assay: IC50 GeoMean (uM) [Cell Line: PAXF1657 EV]
[11] = Table 4, Example 1 assay, read-out: Enzymatic GRK2 IC50: Av IC50 GRK2
[12] = Conc 0.3 uM, read-out: Degradation Assay - 3 point: Degradation (%)
[13] = Conc 1 uM, read-out: Degradation Assay - 3 point: Degradation (%)
[14] = Conc 3 uM, read-out: Degradation Assay - 3 point: Degradation (%)
[15] = proliferation, read-out: GeoMean IC50 (uM) PAXF1657 KO Clone #4
[16] = proliferation, read-out: GeoMean IC50 (UM) PAXF1657 EV

SMILES | IC50 [1, 5] [nM] | % GRK2 degradation at 0.1 uM in PAXF1657 EV (24 hrs) ([2]; 0.1 uM, PAXF1657 EV, 24 hrs) [%] | inhibition at 0.3 µM [2, 6] [%] | inhibition at 1 µM [2, 7] [%] | inhibition at 3 µM [2, 8] [%] | % GRK2 degradation at 10 uM in PAXF1657 EV (24 hrs) ([2]; 10 uM, PAXF1657 EV, 24 hrs) [%] | GRK2 degradation, dose dependence (FIGS. 1A-1D) ([2]; 24-hour treatment in PAXF1657 cells) | IC50 [3, 9] [µM] | IC50 [4, 10] [µM] | IC50 [1, 11] [nM] | inhibition at 0.3 µM [2, 12] [%] | inhibition at 1 µM [2, 13] [%] | inhibition at 3 µM [2, 14] [%] | IC50 [3, 15] [µM] | IC50 [4, 16] [µM]
Cn1c(CNc2cccc(C(=O)NCc3cccc(OCCCCCOCCCOCC(=O)Nc4cccc5c4CN(C4CCC(=O)NC4=O)C5=O)c3)c2)nnc1-c1ccncn1 (stereo not drawn) [Compound D64, N-(3-((5-(3-(2-((2-(2,6-dioxopiperidin-3-yl)-1-oxoisoindolin-4-yl)amino)-2-oxoethoxy)propoxy)pentyl)oxy)benzyl)-3-(((4-methyl-5-(pyrimidin-4-yl)-4H-1,2,4-triazol-3-yl)methyl)amino)benzamide] | < 100 | 26 | 62 | 79 | 83 | 77 | Dose dependent | > 10 | > 10 |  |  |  |  |  | 
Cc1ncsc1-c1ccc(CNC(=O)[C@@H]2C[C@@H](O)CN2C(=O)[C@@H](NC(=O)CCCCCOCCOCCOCCCCCCOc2ccc(C(F)(F)F)c(CNC(=O)c3cccc(NCc4nnc(-c5ccncn5)n4C)c3)c2)C(C)(C)C)cc1 [Compound D92, (2S,4R)-1-((S)-2-(tert-butyl)-22-(3-((3-(((4-methyl-5-(pyrimidin-4-yl)-4H-1,2,4-triazol-3-yl)methyl)amino)benzamido)methyl)-4-(trifluoromethyl)phenoxy)-4-oxo-10,13,16-trioxa-3-azadocosan-1-oyl)-4-hydroxy-N-(4-(4-methylthiazol-5-yl)benzyl)pyrrolidine-2-carboxamide] | < 100 |  | 34 | 12 | 5 |  |  | > 10 | < 1 |  |  |  |  |  | 
C[C@H](NC(=O)c1cccc(NCc2nnc(-c3ccncn3)n2C)c1)c1ccc(OCCCCCOCCCOCC(=O)Nc2cccc3c2CN(C2CCC(=O)NC2=O)C3=O)cc1 (stereo partly drawn) [Compound D150, N-((1S)-1-(4-((5-(3-(2-((2-(2,6-dioxopiperidin-3-yl)-1-oxoisoindolin-4-yl)amino)-2-oxoethoxy)propoxy)pentyl)oxy)phenyl)ethyl)-3-(((4-methyl-5-(pyrimidin-4-yl)-4H-1,2,4-triazol-3-yl)methyl)amino)benzamide] |  |  |  |  |  |  |  |  |  | > 1000 | 44 | 43 | 40 | > 30 | 27.7
Cc1ncsc1-c1ccc([C@H](C)NC(=O)[C@@H]2C[C@@H](O)CN2C(=O)[C@@H](NC(=O)COCCCOCCCCCOc2cccc([C@@H](C)NC(=O)c3cccc(NCc4nnc(-c5ccncn5)n4C)c3)c2)C(C)(C)C)cc1 [Compound D169] |  |  |  |  |  |  |  |  |  | 14.5 | 23.6 | 39.4 | 24 | 8.15 | 0.12
Cc1ncsc1-c1ccc(CNC(=O)[C@@H]2C[C@@H](O)CN2C(=O)[C@@H](NC(=O)CCCCOCCOCCOCCCCCCOc2cccc(CNC(=O)c3cccc(NCc4nnc(-c5ccncn5)n4C)c3)c2)C(C)(C)C)cc1 [Compound D109, (2S,4R)-1-((S)-2-(tert-butyl)-21-(3-((3-(((4-methyl-5-(pyrimidin-4-yl)-4H-1,2,4-triazol-3-yl)methyl)amino)benzamido)methyl)phenoxy)-4-oxo-9,12,15-trioxa-3-azahenicosan-1-oyl)-4-hydroxy-N-(4-(4-methylthiazol-5-yl)benzyl)pyrrolidine-2-carboxamide] |  |  |  |  |  |  |  |  |  | 54.9 | 26.1 | 45.9 | 66.6 | 5.17 | 0.68
Cc1ncsc1-c1ccc(CNC(=O)[C@@H]2C[C@@H](O)CN2C(=O)[C@@H](NC(=O)CCCCCOCCOCCOCCCCCCOc2cccc([C@@H](C)NC(=O)c3cccc(NCc4nnc(-c5ccncn5)n4C)c3)c2)C(C)(C)C)cc1 [Compound D162] |  |  |  |  |  |  |  |  |  | 14.1 | 51 | 72.7 | 72.9 | 11.4 | 0.49
C[C@@H](NC(=O)c1cccc(NCc2nnc(-c3ccncn3)n2C)c1)c1cccc(C(=O)N2CCC(CN3CCN(c4ccc5c(c4)CN(C4CCC(=O)NC4=O)C5=O)CC3)CC2)c1 (stereo partly drawn) [Compound D122, N-((1R)-1-(3-(4-((4-(2-(2,6-dioxopiperidin-3-yl)-1-oxoisoindolin-5-yl)piperazin-1-yl)methyl)piperidine-1-carbonyl)phenyl)ethyl)-3-((4-methyl-5-(pyrimidin-4-yl)-4H-1,2,4-triazol-3-yl)methylamino)benzamide hydrochloride] |  |  |  |  |  |  |  |  |  | 12.3 | 84.9 | 90.6 | 92.5 | > 30 | 0.1
C[C@@H](NC(=O)c1cccc(NCc2nnc(-c3ccncn3)n2C)c1)c1ccc(OCCCN2CCN(c3ccc4c(c3)CN(C3CCC(=O)NC3=O)C4=O)CC2)cc1 (stereo partly drawn) [Compound D173] |  |  |  |  |  |  |  |  |  | 18.6 | 52.5 | 48.5 | 14.7 | 0.26 | 0.03
C[C@@H](NC(=O)c1cccc(NCc2nnc(-c3ccncn3)n2C)c1)c1cccc(OCCCCCOCCCOCCOc2ccc3c(c2)CN(C2CCC(=O)NC2=O)C3=O)c1 (stereo partly drawn) [Compound D160, N-((1R)-1-(3-((5-(3-(2-((2-(2,6-dioxopiperidin-3-yl)-1-oxoisoindolin-5-yl)oxy)ethoxy)propoxy)pentyl)oxy)phenyl)ethyl)-3-(((4-methyl-5-(pyrimidin-4-yl)-4H-1,2,4-triazol-3-yl)methyl)amino)benzamide] |  |  |  |  |  |  |  |  |  | 25 | 92 | 87 | 83 | > 30 | 0.05
